In patent publication US20240182420A1, “MICROBIOCIDAL ISONICOTINIC AMIDE DERIVATIVES” (SYNGENTA CROP PROTECTION AG, priority 2021, published 2024):

Columns and labels:
Sclerotinia sclerotiorum = Sclerotinia sclerotiorum (cottony rot, white mold), liquid culture growth inhibition; assay type: cell-based; details: PDB nutrient broth, 24° C., 72 hrs, 620 nm, vs untreated control
Procedure: (§1) Mycelial fragments of the fungus prepared from a fresh liquid culture were directly mixed into nutrient broth (PDB potato dextrose broth). A DMSO solution of the test compounds was placed into a microtiter plate (96-well format) and the nutrient broth containing the fungal spores was added to it. The test plates were incubated at 24° C. and the inhibition of growth was determined photometrically after 72 hrs at 620 nm.

[1] = tested on: Glomerella lagenarium syn Colletotrichum lagenarium; assay: Glomerella lagenarium syn. Colletotrichum lagenarium (anthracnose), liquid culture growth inhibition; assay type: cell-based; details: Colletotrichum orbiculare, PDB nutrient broth, 24° C., 72 hrs, 620 nm, vs untreated control
Procedure: as §1, with “Conidia” for “Mycelial fragments”, “fungus” for “fungus prepared”, “cryogenic storage” for “a fresh liquid culture”

Alternaria solani = Alternaria solani (early blight of tomato), tomato leaf disks, preventive; assay type: in vivo; details: foliar, 96 h, assessed 4 dpi, vs untreated control
Procedure: Tomato leaf disks are placed on water agar in multiwell plates (24-well format) and sprayed with test solutions. After drying, the leaf disks are inoculated with a spore suspension of the fungus. After appropriate incubation the activity of a compound is assessed 4 dpi (days post inoculation) as preventive fungicidal activity.

[2] = tested on: Phaeosphaeria nodorum syn. Septoria nodorum; assay: Phaeosphaeria nodorum syn. Septoria nodorum (glume blotch of wheat), wheat leaf segments, preventive; assay type: in vivo; details: Parastagonospora nodorum, foliar, 96 h, assessed 4 dpi, vs untreated control
Procedure: (§2) Wheat leaf segments are placed on agar in multiwell plates (24-well format) and sprayed with test solutions. After drying, the leaf disks are inoculated with a spore suspension of the fungus. After appropriate incubation the activity of a compound is assessed 4 dpi (days after inoculation) as preventive fungicidal activity.
The following compounds from Table T1 gave at least 80% control of Phaeosphaeria nodorum at 200 ppm when compared to untreated control under the same conditions, which sowed extensive disease development: • 1.1, 1.3, 1.7, 1.14, 1.39, 1.41, 1.86, 1.87, 1.92, 1.94, 1.95.

[3] = tested on: Monographella nivalis syn. Microdochium nivale, Fusarium nivale; assay: Monographella nivalis syn. Microdochium nivale (snow mould, foot rot), liquid culture growth inhibition; assay type: cell-based; details: PDB nutrient broth, 24° C., 72 hrs, 620 nm, vs untreated control
Procedure: as §1, with “Conidia” for “Mycelial fragments”, “fungus” for “fungus prepared”, “cryogenic storage” for “a fresh liquid culture”

[4] = tested on: Botryotinia fuckeliana syn. Botrytis cinerea; assay: Botryotinia fuckeliana syn. Botrytis cinerea (gray mould), liquid culture growth inhibition; assay type: cell-based; details: PDB nutrient broth, 24° C., 72 hrs, photometric, vs untreated control
Procedure: as §1, with “Conidia” for “Mycelial fragments”, “fungus” for “fungus prepared”, “cryogenic storage” for “a fresh liquid culture”, “hrs.” for “hrs at 620 nm.”

Pyrenophora teres = Pyrenophora teres (net blotch of barley), barley leaf segments, preventive; assay type: in vivo; details: foliar, 96 h, assessed 4 dpi, vs untreated control
Procedure: as §2, with “Barley” for “Wheat”, “incubation,” for “incubation”

[5] = tested on: Botryotinia fuckeliana syn. Botrytis cinerea; assay: Botryotinia fuckeliana syn. Botrytis cinerea (grey mold on tomato), tomato plants; assay type: in vivo; details: tomato plants cv. Roter Gnom, inoculated two days after application, leaf area covered by disease 5-6 days after application
Procedure: 4-week old tomato plants cv. Roter Gnom are treated sprayed in a spray chamber with the formulated test compound diluted in water. The test plants are inoculated by spraying them with a spore suspension two days after application. The inoculated test plants are incubated at 20° C. and 95% rh in a greenhouse and the percentage leaf area covered by disease is assessed when an appropriate level of disease appears on untreated check plants (5-6 days after application).

SMILES	inhibition of growth at 20 ppm (Sclerotinia sclerotiorum)	inhibition of growth at 20 ppm [1]	pest or weed control at 200 ppm (Alternaria solani)	pest or weed control at 200 ppm [2]	inhibition of growth at 20 ppm [3]	inhibition of growth at 20 ppm [4]	pest or weed control at 200 ppm (Pyrenophora teres)	pest or weed control at 200 ppm [5]
O=C(NC[C@H](F)c1ccc(Cl)cc1Cl)c1c(Br)cncc1Oc1cccc(C2CC2)c1 [Compound 1.95, 3-bromo-5-(3-cyclopropyl-phenoxy)-N-[(2R)-2-(2,4-dichlorophenyl)-2-fluoro-ethyl]pyridine-4-carboxamide]	≥ 80%	≥ 80%	≥ 80%	≥ 80%	≥ 80%	≥ 80%		
Cc1cccc(Oc2cnc(Cl)cc2C(=O)NCC(F)c2ccc(Cl)cc2Cl)c1 (centres unmarked) [Compound 1.3, 2-chloro-N-[2-(2,4-dichlorophenyl)-2-fluoro-ethyl]-5-(3-methylphenoxy) pyridine-4-carboxamide]	≥ 80%	≥ 80%		≥ 80%		≥ 80%	≥ 80%	≥ 50%
C#Cc1cncc(Oc2cccc(C3CC3)c2)c1C(=O)NCC(F)c1ccc(Cl)cc1Cl (centres unmarked) [Compound 1.87, 3-(3-cyclopropyl-phenoxy)-N-[2-(2,4-dichlorophenyl)-2-fluoro-ethyl]-5-ethynyl-pyridine-4-carboxamide]	≥ 80%	≥ 80%	≥ 80%	≥ 80%	≥ 80%	≥ 80%	≥ 80%	≥ 50%
Cc1cc(C(=O)NC[C@@H](F)c2ccc(Cl)cc2Cl)c(Oc2cccc(C3CC3)c2)cn1 [Compound 1.41, 5-(3-cyclopropyl-phenoxy)-N-[(2S)-2-(2,4-dichlorophenyl)-2-fluoro-ethyl]-2-methyl-pyridine-4-carboxamide]	≥ 80%	≥ 80%	≥ 80%	≥ 80%	≥ 80%	≥ 80%	≥ 80%	≥ 50%
Cc1cc(C(=O)NCC(F)c2ccc(Cl)cc2Cl)c(Oc2cccc(C3CC3)c2)cn1 (centres unmarked) [Compound 1.14, 5-(3-cyclopropyl-phenoxy)-N-[2-(2,4-dichlorophenyl)-2-fluoro-ethyl]-2-methyl-pyridine-4-carboxamide]	≥ 80%	≥ 80%	≥ 80%	≥ 80%	≥ 80%	≥ 80%	≥ 80%	≥ 50%
C#CC(C)(C)Oc1cncc(Oc2cccc(C3CC3)c2)c1C(=O)NCCc1ccc(Cl)cc1Cl [Compound 1.88, 3-(3-cyclopropyl-phenoxy)-N-[2-(2,4-dichlorophenyl)ethyl]-5-(1,1-dimethylprop-2-ynoxy)pyridine-4-carboxamide]	≥ 80%	≥ 80%			≥ 80%	≥ 80%	≥ 80%	≥ 50%
Cc1cncc(Oc2cccc(C3CC3)c2)c1C(=O)NC[C@H](F)c1ccc(Cl)cc1Cl [Compound 1.94, 3-(3-cyclopropyl-phenoxy)-N-[(2R)-2-(2,4-dichlorophenyl)-2-fluoro-ethyl]-5-methyl-pyridine-4-carboxamide]	≥ 80%	≥ 80%	≥ 80%	≥ 80%	≥ 80%	≥ 80%	≥ 80%	
Cc1cccc(Oc2cnc(C)cc2C(=O)NCC(F)c2ccc(Cl)cc2Cl)c1 (centres unmarked) [Compound 1.1, N-[2-(2,4-dichlorophenyl)-2-fluoro-ethyl]-2-methyl-5-(3-methylphenoxy)pyridine-4-carboxamide]	≥ 80%	≥ 80%	≥ 80%	≥ 80%	≥ 80%	≥ 80%	≥ 80%	≥ 50%
C=C(C)COc1cncc(Oc2cccc(C3CC3)c2)c1C(=O)NCC(F)c1ccc(Cl)cc1Cl (centres unmarked) [Compound 1.85, 3-(3-cyclopropyl-phenoxy)-N-[2-(2,4-dichlorophenyl)-2-fluoro-ethyl]-5-(2-methylallyloxy) pyridine-4-carboxamide]	≥ 80%	≥ 80%			≥ 80%	≥ 80%	≥ 80%	≥ 50%
Cc1ccc(C(F)CNC(=O)c2cc(C)ncc2Oc2cccc(C3CC3)c2)c(C)c1 (centres unmarked) [Compound 1.39, 5-(3-cyclopropyl-phenoxy)-N-[2-(2,4-dimethylphenyl)-2-fluoro-ethyl]-2-methyl-pyridine-4-carboxamide]	≥ 80%	≥ 80%	≥ 80%	≥ 80%	≥ 80%	≥ 80%	≥ 80%	≥ 50%
